Values joined by “and” are separate entries in the source; they are usually repeats but may differ in a detail not shown here. Equal values may be shown once. Toxic doses and inconclusive results are not listed. Rule as the data show it: active = T/C of 150% or more; inactive = T/C below 125%.
Tested on: L1210 leukemia ip in BDF1 mice, survival T/C
Test: NCI In Vivo Anticancer Drug Screen. Data for tumor model L1210 Leukemia (intraperitoneal) in B6D2F1 (BDF1) mice
Conditions: endpoint: mean survival time, higher = longer survival
Outline: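 In this screen, tumor-bearing mice given compound are compared to those given vehicle, and their survival values are reported as a treated-to-control quotient.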

[1] = dose: 100.0 mg/kg/injection, schedule: Q04DX003 (ip), vehicle: saline with Tween-80
[2] = dose: 25.0 mg/kg/injection, schedule: Q01DX009 (ip), vehicle: saline
[3] = dose: 50.0 mg/kg/injection, schedule: Q01DX009 (ip), vehicle: saline
[4] = dose: 100.0 mg/kg/injection, schedule: Q01DX009 (ip), vehicle: saline
[5] = dose: 200.0 mg/kg/injection, schedule: Q01DX009 (ip), vehicle: saline
[6] = dose: 100.0 mg/kg/injection, schedule: Q01DX009 (ip), vehicle: Klucel (hydroxypropylcellulose) (HPC)
[7] = dose: 200.0 mg/kg/injection, schedule: Q01DX009 (ip), vehicle: Klucel (hydroxypropylcellulose) (HPC)
[8] = dose: 400.0 mg/kg/injection, schedule: Q01DX009 (ip), vehicle: Klucel (hydroxypropylcellulose) (HPC)
[9] = dose: 100.0 mg/kg/injection, schedule: Q04DX003 (ip), vehicle: Klucel (hydroxypropylcellulose) (HPC)
[10] = dose: 200.0 mg/kg/injection, schedule: Q04DX003 (ip), vehicle: Klucel (hydroxypropylcellulose) (HPC)
[11] = dose: 400.0 mg/kg/injection, schedule: Q04DX003 (ip), vehicle: Klucel (hydroxypropylcellulose) (HPC)
[12] = dose: 12.5 mg/kg/injection, schedule: Q01DX009 (ip), vehicle: saline
[13] = dose: 75.0 mg/kg/injection, schedule: Q01DX001 (ip), vehicle: carboxymethylcellulose (CMC)
[14] = dose: 50.0 mg/kg/injection, schedule: Q01DX009 (ip), vehicle: Klucel (hydroxypropylcellulose) (HPC)
[15] = dose: 50.0 mg/kg/injection, schedule: Q01DX009 (ip), vehicle: saline with Tween-80
[16] = dose: 100.0 mg/kg/injection, schedule: Q04DX002 (ip), vehicle: Klucel (hydroxypropylcellulose) (HPC)
[17] = dose: 200.0 mg/kg/injection, schedule: Q04DX002 (ip), vehicle: Klucel (hydroxypropylcellulose) (HPC)
[18] = dose: 400.0 mg/kg/injection, schedule: Q04DX002 (ip), vehicle: Klucel (hydroxypropylcellulose) (HPC)

Measured: T/C

c1ccc(N2CCN(c3c4ccccc4nc4ccccc34)CC2)cc1
inactive: dose: 75.0 mg/kg/injection, schedule: Q01DX001 (ip), vehicle: Klucel (hydroxypropylcellulose) (HPC) 105 % of control | dose: 150.0 mg/kg/injection, schedule: Q01DX001 (ip), vehicle: Klucel (hydroxypropylcellulose) (HPC) 105 % of control | dose: 300.0 mg/kg/injection, schedule: Q01DX001 (ip), vehicle: Klucel (hydroxypropylcellulose) (HPC) 96 % of control

NCCCNC/C=C/CNCCCN
inactive: dose: 75.0 mg/kg/injection, schedule: Q04DX003 (ip), vehicle: saline 105 % of control | dose: 150.0 mg/kg/injection, schedule: Q04DX003 (ip), vehicle: saline 102 % of control | dose: 300.0 mg/kg/injection, schedule: Q04DX003 (ip), vehicle: saline 104 % of control

CC(=O)Nc1c(Cl)c(Cl)c2c(c1Cl)Cc1cc(F)ccc1-2
inactive: dose: 62.5 mg/kg/injection, schedule: Q01DX Z (ip), vehicle: saline 97 % of control | [1] 101 % of control | dose: 125.0 mg/kg/injection, schedule: Q01DX Z (ip), vehicle: saline 95 % of control | dose: 200.0 mg/kg/injection, schedule: Q04DX003 (ip), vehicle: saline with Tween-80 93 % of control | dose: 250.0 mg/kg/injection, schedule: Q01DX Z (ip), vehicle: saline 101 % of control | dose: 400.0 mg/kg/injection, schedule: Q04DX003 (ip), vehicle: saline with Tween-80 95 % of control | dose: 500.0 mg/kg/injection, schedule: Q01DX Z (ip), vehicle: saline 95 % of control | dose: 650.0 mg/kg/injection, schedule: Q01DX Z (ip), vehicle: saline 96 % of control | dose: 800.0 mg/kg/injection, schedule: Q01DX Z (ip), vehicle: saline 102 % of control

NC(CCC(=O)NC(CSC(c1ccccc1)(c1ccccc1)c1ccccc1)C(=O)NCC(=O)O)C(=O)O (stereo not drawn)
inactive: [2] 109 % of control | [3] 104 % of control and 114 % of control | [4] 107 % of control and 113 % of control | [5] 124 % of control | dose: 300.0 mg/kg/injection, schedule: Q01DX009 (ip), vehicle: saline 90 % of control

O=C(N/N=C/c1c(O)ccc2ccccc12)c1ccccc1
inactive: [6] 113 % of control | [7] 103 % of control | [8] 108 % of control

CN(C)CCCN1CC2CCCC1O2 (stereo not drawn)
inactive: dose: 50.0 mg/kg/injection, schedule: Q01DX001 (ip), vehicle: saline 90 % of control | dose: 100.0 mg/kg/injection, schedule: Q01DX001 (ip), vehicle: saline 102 % of control | dose: 200.0 mg/kg/injection, schedule: Q01DX001 (ip), vehicle: saline 100 % of control | dose: 400.0 mg/kg/injection, schedule: Q01DX001 (ip), vehicle: saline 94 % of control

NC(N)=NCCCCCC(=O)O
inactive: [4] 95 % of control | dose: 100.0 mg/kg/injection, schedule: Q04DX003 (ip), vehicle: saline 103 % of control | [5] 88 % of control | dose: 200.0 mg/kg/injection, schedule: Q04DX003 (ip), vehicle: saline 100 % of control | dose: 400.0 mg/kg/injection, schedule: Q04DX003 (ip), vehicle: saline 101 % of control

CC(=O)Nc1ccc(OCCCCOc2ccccc2)cc1
inactive: [6] 87 % of control | [9] 103 % of control | [7] 97 % of control | [10] 100 % of control | [8] 92 % of control | [11] 97 % of control

Cc1ccccc1CC#N
inactive: dose: 6.25 mg/kg/injection, schedule: Q01DX009 (ip), vehicle: saline 108 % of control | [12] 108 % of control | [2] 101 % of control

COC1CCC2(C)C3CCC4C(=CCC5C(C)(C)C(=O)CCC45C)CC3(C)CCC2C1(C)C (stereo not drawn)
inactive: [13] 105 % of control | dose: 150.0 mg/kg/injection, schedule: Q01DX001 (ip), vehicle: carboxymethylcellulose (CMC) 110 % of control | dose: 300.0 mg/kg/injection, schedule: Q01DX001 (ip), vehicle: carboxymethylcellulose (CMC) 104 % of control

O=C(O)C1C2CCCCCCC21 (stereo not drawn)
inactive: [14] 108 % of control | dose: 100.0 mg/kg/injection, schedule: Q01DX005 (ip), vehicle: Klucel (hydroxypropylcellulose) (HPC) 95 % of control | [6] 108 % of control | dose: 200.0 mg/kg/injection, schedule: Q01DX005 (ip), vehicle: Klucel (hydroxypropylcellulose) (HPC) 103 % of control | [7] 97 % of control

NC1=NNC(N)=NN1
inactive: [12] 93 % of control | [2] 101 % of control | [3] 100 % of control and 107 % of control | [4] 92 % of control

CC(=O)C(C(c1ccccc1)N1CCCc2ccccc21)N1CCOCC1 (stereo not drawn)
inactive: [6] 96 % of control | [7] 91 % of control | [8] 98 % of control

CN(N(P(c1ccccc1)c1ccccc1)P(c1ccccc1)c1ccccc1)P(c1ccccc1)c1ccccc1
inactive: dose: 100.0 mg/kg/injection, schedule: Q01DX001 (ip), vehicle: steriod suspending solution 110 % of control | dose: 400.0 mg/kg/injection, schedule: Q01DX001 (ip), vehicle: steriod suspending solution 94 % of control

Oc1ccc2ccc3[nH]cnc3c2c1
inactive: [6] 101 % of control | [9] 95 % of control | [7] 104 % of control | [10] 95 % of control | [8] 97 % of control | [11] 94 % of control

CCOC(=O)NCC(CCN(C)C)(c1cccc2ccccc12)C(C)CC (stereo not drawn)
inactive: dose: 25.0 mg/kg/injection, schedule: Q01DX009 (ip), vehicle: Klucel (hydroxypropylcellulose) (HPC) 94 % of control | [14] 94 % of control | dose: 50.0 mg/kg/injection, schedule: Q04DX003 (ip), vehicle: Klucel (hydroxypropylcellulose) (HPC) 105 % of control | [9] 103 % of control

C[n+]1cccc(SC2CCC3CC4CC3C2C4)c1 (stereo not drawn)
inactive: [15] 91 % of control

C/C(=N\Nc1ccccc1)C(C)C
inactive: dose: 75.0 mg/kg/injection, schedule: Q04DX003 (ip), vehicle: Klucel (hydroxypropylcellulose) (HPC) 118 % of control | dose: 150.0 mg/kg/injection, schedule: Q04DX003 (ip), vehicle: Klucel (hydroxypropylcellulose) (HPC) 94 % of control | dose: 300.0 mg/kg/injection, schedule: Q04DX003 (ip), vehicle: Klucel (hydroxypropylcellulose) (HPC) 96 % of control

O=C(Oc1c(-c2ccccc2)[nH]c2ccccc12)c1ccc([N+](=O)[O-])cc1
inactive: [16] 104 % of control | [17] 101 % of control | [18] 90 % of control

O=C(O)CC(NC(=O)COc1ccc(F)cc1)C(=O)O (stereo not drawn)
inactive: [16] 89 % of control | [17] 89 % of control | [18] 96 % of control

CCN1CCC(c2ccccc2)(c2ccccc2)C1=N
inactive: [13] 89 % of control

CC(C)COC(=O)C1(C)OC1c1ccccc1 (stereo not drawn)
inactive: dose: 100.0 mg/kg/injection, schedule: Q04DX002 (ip), vehicle: saline 115 % of control | dose: 200.0 mg/kg/injection, schedule: Q04DX002 (ip), vehicle: saline 104 % of control | dose: 400.0 mg/kg/injection, schedule: Q04DX002 (ip), vehicle: saline 97 % of control

Nc1ncnc2c1ncn2C1OC(C(O)CO)C(O)C1N (stereo not drawn)
inactive: dose: 50.0 mg/kg/injection, schedule: Q01DX001 (ip), vehicle: carboxymethylcellulose (CMC) 111 % of control | dose: 100.0 mg/kg/injection, schedule: Q01DX001 (ip), vehicle: carboxymethylcellulose (CMC) 105 % of control | dose: 200.0 mg/kg/injection, schedule: Q01DX001 (ip), vehicle: carboxymethylcellulose (CMC) 108 % of control | dose: 400.0 mg/kg/injection, schedule: Q01DX001 (ip), vehicle: carboxymethylcellulose (CMC) 108 % of control

N#CCn1c(C(F)(F)F)nc2nc(Cl)c(Cl)nc21
inactive: dose: 25.0 mg/kg/injection, schedule: Q01DX009 (ip), vehicle: saline with Tween-80 98 % of control | [15] 98 % of control | dose: 100.0 mg/kg/injection, schedule: Q01DX009 (ip), vehicle: saline with Tween-80 96 % of control | [1] 98 % of control

CC1(C)N=C(N)N=C(N)N1c1ccc(OCC(=O)Nc2ccc(S(=O)(=O)F)cc2)cc1
inactive: dose: 0.8 mg/kg/injection, schedule: Q01DX009 (ip), vehicle: saline 101 % of control | dose: 4.0 mg/kg/injection, schedule: Q01DX009 (ip), vehicle: saline 103 % of control | dose: 20.0 mg/kg/injection, schedule: Q01DX009 (ip), vehicle: saline 112 % of control

Source: PubChem BioAssay AID248 (DTP/NCI, 2004)
